Laboratory results as given in patent US20040062744A1, “Bactericidal disinfectant, antibacterial drug, and antibacterial material” (NICCA CHEMICAL CO., LTD., priority 2003, published 2004).

Key:
[1] = Test of skin stimulation (sealed filter paper on inner side of left upper arm); format: in vivo, human; parameters: key to primary stimulation (skin stimulation): −: negative (no reaction); ±: rubedo alone; +: rubedo and humectation or papula; ++: rubedo, edema and marked papula or small blisters; conditions: for primary stimulation (skin stimulation): 0.02 ml, one per person
Description: The test of skin stimulation was conducted in accordance with the following method.
A sterilizing disinfectant in an amount of 0.02 ml was placed on a filter paper and attached to a portion at the inner side of the left upper arm of a person in a manner such that the paper was sealed. The test was conducted with five male persons (A to E) and five female persons (F to J). The primary stimulation was evaluated 30 minutes and 24 hours after the attachment of the paper and the result was classified into four levels. The criterion for the classification was as follows:
Criterion for the Classification
−: negative (no reaction)
+: rubedo and humectation or papula
++: rubedo, edema and marked papula or small blisters

[2] = system: Pseudomonus aeruginosa (P. aeruginosa, IFO 3080); assay: Minimum bactericidal concentration (disinfecting effect), 1 minute contact; format: cell-based; conditions: contact 1 minute, culture 37° C. 20 hours
Description: (§1) The disinfecting effect was evaluated in accordance with the following methods.
(§2) Seven microorganisms, i.e., Staphyrococcus aureus (S. aureus, ATCC 6538P), methicillin-resistant S. aureus (MRSA IID 1677), methicillin-resistant S. aureus (MRSA of a clinically isolated strain), Escherichia coli (E. coli, IFO 3301), Klebsiella pneumoniae (pneumoniae, IFO ATCC 4352), Pseudomonus aeruginosa (P. aeruginosa, IFO 3080) and Serratia marcescens (S. marcescens of a clinically isolated strain), were used for the test.
(§3) A test microorganism in an inoculating loop to streak a portion of 8 ml of a culture medium of soybean casein digest (SCD) on the surface and cultured at 37° C. for 18 hours. The obtained medium in an amount of 1 ml was diluted with the SCD culture medium to 1/10 of the original concentration. The diluted medium in an amount of 2 ml was brought into contact with 100 ml of the SCD culture medium. The obtained medium was cultured at 37° C. for 2 hours except that the medium containing P. aeruginosa was cultured for 4 hours and a liquid of a test microorganism was prepared. The liquid of a test microorganism contained 10^6 to 10^8 live microorganisms per 1 ml of the liquid.
(§4) A series of solutions containing a composition of a sterilizing disinfectant were prepared by dilution with a physiological saline in a manner such that each solution was diluted to one half the concentration to prepare a solution having the next lower concentration. The solutions of a series each in an amount of 10 ml were separately placed into test tubes, treated for disinfection in an autoclave and mixed with a liquid of a test microorganism in an amount of 0.1 ml. After the sterilizing disinfectant and the test microorganism were kept in contact with each other for 1 minute, the obtained liquid for inoculation in an amount of 0.1 ml was added to each of three SCD-LP (lecithin polysolvate) culture media (9 ml, each) which had been disinfected in advance. After the inoculated media were cultured at 37° C. for 20 hours, the presence or the absence of turbidity in the media was examined. When the medium was transparent, it was decided that no growth of the microorganism could be recognized and the result for this medium was expressed as −. When the medium was turbid, it was decided that growth of the microorganism could be recognized and the result for this medium was expressed as+. […] The minimum concentration of the composition of a sterilizing disinfectant which gave the result of − was used as the minimum bactericidal concentration (MBC).

[3] = system: methicillin-resistant S. aureus (MRSA of a clinically isolated strain); assay: as above; format: cell-based; conditions: contact 1 minute, culture 37° C. 20 hours
Description: as §1, §2, §3, §4

[4] = system: Escherichia coli (E. coli, IFO 3301); assay: as above; format: cell-based; conditions: contact 1 minute, culture 37° C. 20 hours
Description: as §1, §2, §3, §4

[5] = system: methicillin-resistant S. aureus (MRSA IID 1677); assay: as above; format: cell-based; conditions: contact 1 minute, culture 37° C. 20 hours
Description: as §1, §2, §3, §4

[6] = system: Staphyrococcus aureus (S. aureus, ATCC 6538P); assay: as above; format: cell-based; conditions: contact 1 minute, culture 37° C. 20 hours
Description: as §1, §2, §3, §4

[7] = system: Serratia marcescens (S. marcescens of a clinically isolated strain); assay: as above; format: cell-based; conditions: contact 1 minute, culture 37° C. 20 hours
Description: as §1, §2, §3, §4

[8] = system: Klebsiella pneumoniae (pneumoniae, IFO ATCC 4352); assay: as above; format: cell-based; conditions: K. pneumoniae; contact 1 minute; culture 37° C. 20 hours
Description: as §1, §2, §3, §4

Substance	primary stimulation (skin stimulation) ([1]; 30 minutes after attachment)	primary stimulation (skin stimulation) ([1]; 24 hours after attachment)	skin disorder ([1]; summary in words of the test of skin stimulation)	Minimum batericidal concentration [2] [ppm]	Minimum batericidal concentration [3] [ppm]	Minimum batericidal concentration [4] [ppm]	Minimum batericidal concentration [5] [ppm]	Minimum batericidal concentration [6] [ppm]	Minimum batericidal concentration [7] [ppm]	Minimum batericidal concentration [8] [ppm]
benzalkonium chloride [Comparative Example 5]	− and ±	+ and ++	marked skin disorder							
benzalkonium chloride [Comparative Example 4]				250	64	64	32	32	64	64
